In series [1] the test system is Ctenocephalides felis. Description: Ctenocephalides felis oral test. Type of series: in vivo. The settings on record: application rate 100 ppm in citrated cattle blood, kill after 2 days. From the text: Solvent: dimethyl sulfoxide […] Dilution with citrated cattle blood gives the desired concentration. About 20 unfed adult cat fleas (Ctenocephalides felis) are placed into a chamber which is closed at the top and bottom with gauze. A metal cylinder whose bottom end is closed with parafilm is placed onto the chamber. The cylinder contains the blood/active ingredient formulation, which can be imbibed by the fleas through the parafilm membrane.

The next series deals with Tetranychus urticae. Description: Tetranychus urticae spray test, OP-resistant. Type of series: in vivo. The settings on record: all stages on bean leaf discs, after 6 days. The procedure: Solvent: 78.0 parts by weight of acetone • • 1.5 parts by weight of dimethylformamide Emulsifier: alkylaryl polyglycol ether […] To produce further test concentrations, the formulation is diluted with emulsifier-containing water. Discs of bean leaves (Phaseolus vulgaris) infested with all stages of the greenhouse red spider mite (Tetranychus urticae) are sprayed with an active ingredient formulation of the desired concentration.

In another series the test system is Phaedon cochleariae. Description: Phaedon cochleariae spray test. Type of series: in vivo. The settings on record: larvae on Chinese cabbage leaf discs, after 7 days. The protocol: Solvent: 78.0 parts by weight of acetone • • 1.5 parts by weight of dimethylformamide Emulsifier: alkylaryl polyglycol ether […] To produce further test concentrations, the formulation is diluted with emulsifier-containing water. Discs of Chinese cabbage leaves (Brassica pekinensis) are sprayed with an active ingredient formulation of the desired concentration and, after drying, populated with larvae of the mustard beetle (Phaedon cochleariae).

The test system of a further series is Musca domestica. Description: Musca domestica test. The settings on record: application rate 100 ppm, adult houseflies, kill after 2 days. Type of series: in vivo. The protocol:
(§1) Solvent: dimethyl sulfoxide
(§2) To produce a suitable preparation of active compound, 10 mg of active compound are mixed with 0.5 ml of dimethyl sulfoxide, and the concentrate is diluted with water to the desired concentration.
Vessels containing a sponge treated with sugar solution and the active ingredient formulation of the desired concentration are populated with 10 adult houseflies (Musca domestica)).
After 2 days, the kill in % is determined. 100% means that all of the flies have been killed; 0% means that none of the flies have been killed.

Series [2] in a line: logP determination by HPLC on reversed-phase column (EEC Directive 79/831 Annex V.A8). Type of series: physicochemical.
The next series relates to Spodoptera frugiperda. Description: Spodoptera frugiperda spray test. Type of series: in vivo. The settings on record: application rate 100 g/ha, caterpillars on maize leaf discs, after 7 days. The protocol:
Solvent: 78.0 parts by weight of acetone • • 1.5 parts by weight of dimethylformamide Emulsifier: alkylaryl polyglycol ether […] To produce further test concentrations, the formulation is diluted with emulsifier-containing water. Leaf discs of maize (Zea mays) are sprayed with an active compound formulation of the desired concentration and, after drying, populated with caterpillars of the armyworm (Spodoptera frugiperda).

The subject of the next series is Lucilia cuprina. Description: Lucilia cuprina test. Type of series: in vivo. The settings on record: application rate 100 ppm, L1 larvae, kill after 2 days. The procedure:
as §1, §2
About 20 L1 larvae of the Australian sheep blowfly (Lucilia cuprina) are transferred into a test vessel containing minced horsemeat and the active compound formulation of the desired concentration.
After 2 days, the kill in % is determined. 100% means that all the larvae have been killed; 0% means that no larvae have been killed.

In the next series the test system is Boophilus microplus. Description: Boophilus microplus injection test. Type of series: in vivo. The settings on record: application rate 20 μg/animal, after 7 days, laying of fertile eggs. The procedure:
Solvent: dimethyl sulfoxide […] The animals are transferred into dishes and kept in a climate-controlled room. Efficacy is assessed after 7 days by laying of fertile eggs. Eggs which are not visibly fertile are stored in a climate-controlled cabinet until the larvae hatch after about 42 days.

Series [3] concerns Ctenocephalides felis. The experiment in a line: Ctenocephalides felis in vitro contact test with adult cat fleas. Type of series: in vivo. The settings on record: application rate 5 μg/cm^2 (500 g/ha), after 48 h, dead or moribund fleas. The procedure: After the solvent has evaporated off, the tubes are populated with 5-10 adult cat fleas (Ctenocephalides felis), sealed with a perforated plastic lid and incubated in a horizontal position at room temperature and ambient humidity. After 48 h, efficacy is determined. To this end, the tubes are stood upright and the fleas are knocked to the base of the tube. Fleas which remain motionless at the base or move in an uncoordinated manner are considered to be dead or moribund.

The mark [4] stands for this setting: Table 1, HPLC C18, acetonitrile/water with formic acid.
The mark [5] stands for this setting: Table 3 intermediates, HPLC C18, acetonitrile/water with formic acid.

Results on 22 molecules are retold here after patent US10202351B2, “Pyrazolyl derivatives as pest control agents” (BAYER ANIMAL HEALTH GMBH, priority 2015, dated 2019).

On to `Cc1cc(C(F)(C(F)(F)F)C(F)(F)F)cc(C)c1-n1cc(-c2ccc(F)c(NC(=O)c3ccncc3)c2F)cn1` [Example 9], for which the efficacy in the series with Ctenocephalides felis [1], in the series on Tetranychus urticae (application rate 100 g/ha), with Phaedon cochleariae (application rate 100 g/ha), in the series with Musca domestica, with Spodoptera frugiperda and in the series with Lucilia cuprina was 100% each time. The same molecule yielded an efficacy in the series with Boophilus microplus of 100%. Besides, the lgP result in series [2] (setting [4]) was “lgP 3.92”.

In the case of `Cc1cc(C(F)(C(F)(F)F)C(F)(F)F)cc(C(F)(F)F)c1-n1cc(-c2cccc(NC(=O)c3ccc(C#N)nc3)c2F)cn1` [Example 69], the efficacy with Ctenocephalides felis [1], in the series on Phaedon cochleariae (application rate 100 g/ha), in the series with Spodoptera frugiperda, in the series with Ctenocephalides felis [3], in the series with Lucilia cuprina and in the series on Boophilus microplus was 100% each time.

Turning to `Cc1cc(C(F)(C(F)(F)F)C(F)(F)F)cc(C)c1-n1cc(-c2cccc(N)c2F)cn1` [III-10], the lgP result in series [2] (setting [5]) is given as “lgP 4.61”.

Take `Cc1cc(C(F)(C(F)(F)F)C(F)(F)F)cc(C)c1-n1cc(-c2ccnc(NC(=O)c3ccc(F)cc3)c2)cn1` [Example 14]: the lgP entry in [2] (setting [4]) is “lgP 4.69”. The efficacy in the series on Boophilus microplus is reported as 80%.

Consider `Cc1cc(C(F)(C(F)(F)F)C(F)(F)F)cc(C(F)(F)F)c1-n1cc(-c2ccc(F)c(NC(=O)C3CSC3)c2F)cn1` [Example 65], for which the efficacy with Ctenocephalides felis [1], in the series with Tetranychus urticae (application rate 100 g/ha), in the series with Phaedon cochleariae (application rate 100 g/ha), in the series with Musca domestica, with Spodoptera frugiperda and in the series on Lucilia cuprina was 100% in each case. The molecule further yielded an efficacy with Boophilus microplus of 80%.

In the case of `Cc1cc(C(F)(C(F)(F)F)C(F)(F)F)cc(C)c1-n1cc(-c2ccc(F)c(N)c2)cn1` [III-8], in series [2] (setting [5]), the lgP result is listed as “lgP 4.47”.

With `Cc1cc(C(F)(C(F)(F)F)C(F)(F)F)cc(C(F)(F)F)c1-n1cc(-c2ccc(F)c(NC(=O)c3ccc(F)nc3)c2F)cn1` [Example 40], the efficacy with Ctenocephalides felis [1], with Tetranychus urticae (application rate 100 g/ha), with Phaedon cochleariae (application rate 100 g/ha), with Musca domestica, with Spodoptera frugiperda and in the series with Lucilia cuprina was 100% each time. The same molecule came in with an efficacy in the series on Boophilus microplus of 100%.

On to `Nc1cccc(-c2cnn(-c3c(Cl)cc(C(F)(F)F)cc3Cl)c2)c1` [III-1], for which the lgP result in series [2] (setting [5]) was “lgP 2.90”.

As for `COc1cccc(C(=O)Nc2cc(-c3cnn(-c4c(C)cc(C(F)(C(F)(F)F)C(F)(F)F)cc4C(F)(F)F)c3)ccc2F)c1` [Example 32], the efficacy in the series with Ctenocephalides felis [1] was 100%; with Phaedon cochleariae (application rate 100 g/ha), 100%; with Musca domestica, 90%; in the series with Spodoptera frugiperda, 100%; in the series on Ctenocephalides felis [3] it was 100%; in the series with Lucilia cuprina it was 100%. The same molecule showed an efficacy in the series on Boophilus microplus of 100%.

On to `Cc1cc(C(F)(C(F)(F)F)C(F)(F)F)cc(C(F)(F)F)c1-n1cc(-c2cc(NC(=O)c3ccnc(F)c3)ccc2F)cn1` [Example 2-1], for which the efficacy with Ctenocephalides felis [1] was determined as 95%; in the series on Tetranychus urticae (application rate 100 g/ha), 90%; in the series on Phaedon cochleariae (application rate 100 g/ha) it was 100%; in the series on Musca domestica, 100%; in the series on Spodoptera frugiperda, 100%; in the series with Lucilia cuprina, 98%. In the series on Boophilus microplus, this molecule came in with an efficacy of 100%.

For `Cc1cc(C(F)(C(F)(F)F)C(F)(F)F)cc(C)c1-n1cc(-c2cnc(Cl)c(NC(=O)C3(C#N)CC3)c2)cn1` [Example 13], the efficacy is 100% with Ctenocephalides felis [1]; 80% with Musca domestica; 83% in the series on Spodoptera frugiperda; 90% in the series with Lucilia cuprina; 100% in the series with Boophilus microplus. The lgP entry in [2] (setting [4]) is listed as “lgP 4.69”.

For the molecule `COc1cc(C(=O)Nc2cc(-c3cnn(-c4c(Cl)cc(C(F)(C(F)(F)F)C(F)(F)F)cc4Cl)c3)ccc2F)ccc1F` [Example 22], the efficacy in the series on Ctenocephalides felis [1], with Tetranychus urticae (application rate 100 g/ha), in the series on Phaedon cochleariae (application rate 100 g/ha), in the series with Musca domestica, in the series on Spodoptera frugiperda and with Lucilia cuprina was 100% throughout. The molecule also registered an efficacy with Boophilus microplus of 100%.

As for `Cc1cc(C(F)(C(F)(F)F)C(F)(F)F)cc(C)c1-n1cc(-c2ccc(Cl)c(N)c2)cn1` [III-7, 2-chloro-5-[1-[2,6-dimethyl-4-[1,2,2,2-tetrafluoro-1-(trifluoromethyl)ethyl]phenyl]pyrazol-4-yl]aniline], the lgP result in series [2] (setting [5]) is “lgP 4.93”; in [2] (synthesis example), 4.93.

With `O=[N+]([O-])c1cccc(-c2cnn(-c3c(Cl)cc(C(F)(F)F)cc3Cl)c2)c1` [II-1], the lgP result in series [2] (setting [5]) was “lgP 4.32”.

Regarding `Cc1cc(C(F)(C(F)(F)F)C(F)(F)F)cc(C)c1-n1cc(-c2ccc(F)c(N)c2F)cn1` [III-9], in series [2] (setting [5]), the lgP result is recorded as “lgP 4.81”.

In the case of `Cc1cc(C(F)(C(F)(F)F)C(F)(F)F)cc(C)c1-n1cc(-c2ccc(Cl)c(NC(=O)c3cccc(F)c3)c2)cn1` [Example 8], in [2] (setting [4]), the lgP result is recorded as “lgP 5.59”. Besides, in the series on Boophilus microplus, the efficacy came out at 100%.

`Cc1cc(C(F)(C(F)(F)F)C(F)(F)F)cc(C)c1-n1cc(-c2ccc(Cl)c([N+](=O)[O-])c2)cn1` [II-7, 4-(4-chloro-3-nitrophenyl)-1-[2,6-dimethyl-4-[1,2,2,2-tetrafluoro-1-(trifluoromethyl)ethyl]phenyl]pyrazole]: the lgP result in series [2] (setting [5]) is “lgP 5.39”; in series [2] (synthesis example), 5.39.

Turning to `O=C(Nc1cccc(-c2cnn(-c3c(Cl)cc(C(F)(F)F)cc3Cl)c2)c1)c1ccncc1` [Example 3], the efficacy is 90% in the series on Ctenocephalides felis [1], 90% in the series on Tetranychus urticae (application rate 500 g/ha), 100% in the series on Phaedon cochleariae (application rate 500 g/ha) and 100% in the series with Boophilus microplus. Also, in [2] (setting [4]), the lgP entry is given as “lgP 3.2”.

Regarding `Cc1cc(C(F)(C(F)(F)F)C(F)(F)F)cc(C(F)(F)F)c1-n1cc(-c2ccc(F)c(NC(=O)c3ccc(F)nc3)c2)cn1` [Example 39], the efficacy with Ctenocephalides felis [1], with Tetranychus urticae (application rate 100 g/ha), in the series on Phaedon cochleariae (application rate 100 g/ha), in the series with Musca domestica, with Spodoptera frugiperda and with Lucilia cuprina was 100% each time. Also, the efficacy in the series with Boophilus microplus is 100%.

For the molecule `Cc1cc(C(F)(C(F)(F)F)C(F)(F)F)cc(C(F)(F)F)c1-n1cc(-c2cc(NC(=O)c3ccncc3)ccc2F)cn1` [Example 2-2], the efficacy with Ctenocephalides felis [1] is on record as 95%; in the series with Tetranychus urticae (application rate 100 g/ha) it was 90%; in the series with Phaedon cochleariae (application rate 100 g/ha), 100%; with Musca domestica, 90%; with Spodoptera frugiperda it was 100%; in the series on Lucilia cuprina it was 98%. Also, in the series with Boophilus microplus, the efficacy stood at 100%.

As for `Cc1cc(C(F)(C(F)(F)F)C(F)(F)F)cc(C)c1-n1cc(-c2ccc(Cl)c(NC(=O)c3ccccc3F)c2)cn1` [Example 10], in [2] (setting [4]), the lgP result is on record as “lgP 6.06”. This molecule had an efficacy with Boophilus microplus of 100%.

For `Cc1cc(C(F)(C(F)(F)F)C(F)(F)F)cc(C(F)(F)F)c1-n1cc(-c2ccc(F)c(N(C)C(=O)c3ccc(F)nc3)c2F)cn1` [Example 41], the efficacy amounted to 100% in the series on Ctenocephalides felis [1]; 100% with Phaedon cochleariae (application rate 100 g/ha); 100% in the series with Musca domestica; 83% with Spodoptera frugiperda; 100% in the series on Lucilia cuprina; 100% with Boophilus microplus.
